{"source": "patent US20210274784A1", "about": "“HERBICIDAL MIXTURES COMPRISING ISOXAFLUTOLE, SAFLUFENACIL AND AN IMIDAZOLINONE HERBICIDE; AND THEIR USE IN SOYBEAN AND COTTON CULTURES” (BASF SE, priority 2018, published 2021)", "tested_on": "ALOMY (Alopecurus myosuroides, Blackgrass)", "assay": "post-emergence greenhouse experiment, herbicidal action (scale 0 to 100)", "format": "in vivo", "settings": "test period 20 days", "source_text": "The culture containers used were plastic flowerpots containing loamy sand with approximately 3.0% of humus as the substrate. The seeds of the test plants were sown separately for each species. For pre-emergence treatment, the active ingredients, which had been suspended or emulsified in water, were applied directly after sowing by means of finely distributing nozzles. The containers were irrigated gently to promote germination and growth and subsequently covered with transparent plastic hoods until the plants had rooted. This cover caused uniform germination of the test plants, unless this had been impaired by the active ingredients. For post-emergence treatment, the test plants were first grown to a height of 3 to 32 cm, depending on the plant habit, and only then treated with the active ingredients which had been suspended or emulsified in water. For this purpose, the test plants were either sown directly and grown in the same containers, or they were first grown separately as seedlings and transplanted into the test containers a few days prior to treatment. Depending on the species, the plants were kept at 10-25° C. or 20-35° C., respectively. The test period extended over 20 days. During this time, the plants were tended, and their response to the individual treatments was evaluated. The evaluation was carried out by using a scale from 0 to 100. […]", "data": [{"molecule": "CS(=O)(=O)c1cc(C(F)(F)F)ccc1C(=O)c1cnoc1C1CC1", "note": "[Isoxaflutole, isoxaflutole]", "values": [{"measurement": "Herbicidal action against ALOMY, Found", "setting": "growth stage 11, Isoxaflutole 3.125 g/ha alone", "value": 0}, {"measurement": "Herbicidal action against ALOMY, Found", "setting": "growth stage 11, Isoxaflutole 6.25 g/ha alone", "value": 0}]}]}
